Results: US12458612B2, “Combination therapy comprising compounds of formula (I) and GLP-1 receptor agonists” (GENFIT, priority 2019, dated 2025)

What was measured:
[1] = tested on: NASH-B6 mice; experiment: Body weight, adiposity and food intake, 8 weeks in NASH-B6 mice (Example 6); format: in vivo; conditions: liraglutide 0.02 mg/kg/day, 8 weeks (FIG. 13B)
Procedure: Male C57BL/6NTac mice (Taconic, USA) were fed with the GAN diet (D09100310 Research Diet) 31 weeks prior to study start to induce NASH pathology (NASH-B6 model). Prior to treatment, blood was collected by retro-orbital sinus puncture after a 6 h-fasting period to measure plasma ALT, AST, TIMP Metallopeptidase Inhibitor 1 (TIMP1, a surrogate marker of liver fibrosis). Blood glucose was measured directly from the tail vein using a WellionVet glucometer (CALEA) after a 6 h-fasting period. Ketone bodies (KB) was also measured directly from the tail vein using a FreeStyle Optium Neo ketometer. Mice were randomized into treatment groups (n=10/group) based on body weight, glycemia, ketonemia and plasma ALT, AST and TIMP1. They received either vehicles, elafibranor (3 mg/kg/day, per os), liraglutide (0.01 mg/kg, BID, SC) or both elafibranor and liraglutide for 8 weeks. To avoid GLP-1 receptor agonist-induced hypophagia, an up-titration protocol was applied for liraglutide during the first 3 weeks of treatment (starting with 0.001 mg/kg BID). Vehicle-dosed chow-fed mice served as additional controls (R03-10 U8211G10R, SAFE).
Body weight and food intake were monitored each day during the treatment period. On the last day of treatment, serum samples were obtained after retro-orbital sinus puncture blood sampling and mice were sacrificed. […]

[2] = tested on: DIO-NASH mice; experiment: Plasma ALT and CRP in DIO-NASH mice, low/high dose semaglutide (Example 7); format: in vivo
Procedure: (§1) The effects of elafibranor alone, semaglutide (low and high doses) alone and their combination were assessed in DIO-NASH mice (C57BL6JRj mice fed with a Amylin Liver NASH Model diet (AMLN) (Research Diet, 40% fat (18% trans-fat), 40% carbohydrate (20% fructose), and 2% cholesterol) (35 weeks prior to study start). Mice with biopsy confirmed steatosis (score≥2) and fibrosis (score≥1) were randomized into treatment groups (n=12 per group). Mice received either vehicles, elafibranor (10 mg/kg/day, per os), low-dose semaglutide (0.3 nmol/kg/day, SC), high-dose semaglutide (10 nmol/kg/day, SC) or elafibranor (10 mg/kg/day) and semaglutide (0.3 nmol/kg/day) in combination.
On the last treatment day, plasma samples were obtained after cardiac puncture blood sampling and mice were sacrificed. The liver was rapidly excised for transcriptomic analyses.
Alanine aminotransferase (ALT) level was measured using Cobas™ C-501 autoanalyzer according to the manufacturer's instructions. C-reactive protein (CRP) concentration was measured by ELISA (Mouse C-Reactive Protein/CRP Immunoassay MCRP00, R&D Systems).

[3] = tested on: DIO-NASH mice; experiment: Liver transcriptomic and gene ontology analysis in DIO-NASH mice (Example 7); format: in vivo
Procedure: as §1, with “combination. […]” for “combination.”
Total RNA was isolated from mice livers using Nucleospin® 96 RNA kit (Macherey Nagel) following manufacturer's instructions. […] The parameters used are an end minimum quality level of 25 and a minimum read length of 50. The unaligned reads were aligned to the Mus musculus mm10 reference genome using the software STAR version 2.5.3. […] Briefly, the count matrix produced by FeatureCounts was analyzed by the DESeqDataSetFromMatrix( ) function followed by the DEseq( ) function from the DESeq2 library. […]
Each metascape analysis was exported as Excel file. The files were imported in R V using the read_excel function from the readxl library (version 1.3.1). […]

[4] = tested on: TNFα secretion in LPS-activated macrophages (THP-1); experiment: TNFα secretion in LPS-activated THP-1 macrophages, combination matrix, HTRF (Example 4); format: cell-based, Human; conditions: GLP-1 receptor agonist alone; LPS-activated THP1 macrophages (FIGS. 11A-B)
Procedure: Human_THP-1 monocytes were seeded at a density of 25,000 cells per well in 384-well plate in RPMI1640 (Gibco, 21875) supplemented with 10% FBS, 1% Penicillin-streptomycin (Gibco, 15140122) and 25 mM Hepes (Gibco, 15630080) and differentiated into macrophages using PMA (Phorbol 12-myristate 13-acetate, Sigma, P8139) at the final concentration of 100 ng/ml for 24 hours.
A 2 component combination matrix was prepared. ELA and GLP-1 receptor agonists stocks were serially diluted in DMSO in 3-points series in a row (ELA) and a 8-points series in a column of a 96-well plate for GLP1RA. Subsequently, the 3×8 combination matrix was generated by 1:1 mixing of all single agent concentrations.
After 24 hrs with PMA, medium was removed, and replaced by serum free RPMI. […]
Synergism between compounds was determined using the Excess Over Bliss (EOB) method.
The values obtained in the TNFα HTRF assay were first transformed into percentage inhibitions over LPS control. Then, using these percentage inhibitions, EOB were calculated. Expected Bliss additivism score (E) was firstly determined by the equation: E=(A+B)−(A×B) where A and B are the percentage inhibition of elafibranor (A) and GLP-1 analogue (B) at a given dose.
The total Bliss score was calculated by addition of all EOB.

[5] = tested on: DIO-NASH mice; experiment: Glycemia (plasma glucose), 40 days in DIO-NASH mice (Example 1); format: in vivo; conditions: ELA 10 mg/kg/day, SEMA 10 nmol/kg/day, 40 days (FIG. 4)
Procedure: (§2) The effects of elafibranor alone, semaglutide alone and the combination of both were assessed in DIO-NASH mice (C57BL6JRj mice fed with a Amylin Liver NASH Model diet (AMLN) (Research Diet, 40% fat (18% trans-fat), 40% carbohydrate (20% fructose), and 2% cholesterol) (36 weeks prior to study start). 41 weeks old male DIO-NASH mice were fed a vehicule (n=12), or vehicule supplemented with elafibranor (10 mg/kg/day), or semaglutide alone (10 nmol/kg) (titration to final dose over 5 days using increments of 0.08 mg/mL) or in combination (n=12 per group).
(§3) Sampling from tail vein were done during the protocol for, blood glucose, plasma insulin, alanine transaminase, aspartate transaminase, triglycerides, total cholesterol dosages.
The plasma glucose level was measured using the Randox kit for Daytona automate (Randox, cat #GL 3815) according to the manufacturer's recommendations. This method was based on a colorimetric assay without any deproteinization of the sample. Briefly, glucose oxidase digestion of the sample led to hydrogen peroxide synthesis. In the presence of phenol and 4-aminophenazone, the hydrogen peroxide was catalyzed by a peroxidase and formed a dye: the quinoneimin. The coloration intensity was directly proportional to the glucose concentration and was measured at 505 nm. Results were expressed in mg/dL.

[6] = tested on: DIO-NASH mice; experiment: Histological assessment of NASH, 12 weeks in DIO-NASH mice (Example 3); format: in vivo; conditions: monotherapy low dose ELA 10 mg/kg/day or SEMA 0.3 nmol/kg/day
Procedure: Male C57BL/6JRj mice were fed with the AMLN diet 35 weeks prior to study start (DIO-NASH model). Mice with biopsy confirmed steatosis (score ≥2) and fibrosis (score ≥1) were randomized into treatment groups (n=12-14 per group). Mice received either vehicles, elafibranor (10 mg/kg/day, per os), semaglutide (0.3 nmol/kg/day, SC) or both elafibranor and semaglutide for 12 weeks. Suboptimal drug doses were used in this study. To avoid SEMA-induced hypophagia, an up-titration protocol was applied during the first 3 weeks of treatment.
On the last day of treatment, plasma samples were obtained after cardiac puncture blood sampling and mice were sacrificed. The liver was rapidly excised for histology and biochemical and transcriptomic analyses.
Liver sections were prepared and stained with hematoxylin eosin safranin (HES) as described in Example 1. The histological features of NASH (steatosis, ballooning, lobular inflammation and fibrosis) were assessed using the NASH Clinical Research Network Scoring System by operators blinded to the experimental groups (Kleiner 2005, Brunt 1999). Steatosis score, activity index (hepatocyte ballooning+lobular inflammation) and NAFLD activity score (NAS) were calculated. Number of inflammatory foci was counted per field using a 200× magnification.

[7] = tested on: DIO-NASH mice; experiment: Insulinemia (plasma insulin), 40 days in DIO-NASH mice (Example 1); format: in vivo; conditions: ELA 10 mg/kg/day, SEMA 10 nmol/kg/day, 40 days (FIG. 5)
Procedure: as §2, §3
The plasmatic insulin was measured using a solid phase two-site enzyme immunoassay from Crystal Chem Inc. (cat #90010). Briefly, 95 μL of guinea-pig anti-insulin serum and 5 μL of diluted sample (or standard) were dispensed per well into a 96-well plate. […] The reaction was then stopped by adding 100 μL of stop solution and absorbance was immediately measured at 450 nm (subtracting wave length: 630 nm). The intensity of the coloration was proportional to the amount of insulin initially present in the sample and was calculated using a standard serum. […]

[8] = tested on: DIO-NASH mice; experiment: Hepatic triglyceride content, 40 days in DIO-NASH mice (Example 1); format: in vivo; conditions: ELA 10 mg/kg/day, SEMA 10 nmol/kg/day, 40 days (FIG. 3)
Procedure: as §2
On the last day of treatment, plasma samples were obtained after cardiac puncture blood sampling and mice were sacrificed. The liver was rapidly excised for biochemical and histological analyses.
Approximately 100 mg of frozen liver tissue were homogenized with a tissue homogenizer (Precellys®24, Bertin Technologies, France) in 150 mM NaCl buffer, containing 15.4 mM NaN3. Lipid fractions in homogenates were extracted with chloroform—methanol (2:1, v/v) followed by measurement of the triglycerides (Biolabo cat #80019).

CCCCCCCCCCCCCCCC(=O)N[C@@H](CCC(=O)NCCCC[C@H](NC(=O)[C@H](C)NC(=O)[C@H](C)NC(=O)[C@H](CCC(N)=O)NC(=O)CNC(=O)[C@H](CCC(=O)O)NC(=O)[C@H](CC(C)C)NC(=O)[C@H](Cc1ccc(O)cc1)NC(=O)[C@H](CO)NC(=O)[C@H](CO)NC(=O)[C@@H](NC(=O)[C@H](CC(=O)O)NC(=O)[C@H](CO)NC(=O)[C@@H](NC(=O)[C@H](Cc1ccccc1)NC(=O)[C@@H](NC(=O)CNC(=O)[C@H](CCC(=O)O)NC(=O)[C@H](C)NC(=O)[C@@H](N)Cc1cnc[nH]1)[C@@H](C)O)[C@@H](C)O)C(C)C)C(=O)N[C@@H](CCC(=O)O)C(=O)N[C@@H](Cc1ccccc1)C(=O)N[C@H](C(=O)N[C@@H](C)C(=O)N[C@@H](Cc1c[nH]c2ccccc12)C(=O)N[C@@H](CC(C)C)C(=O)N[C@H](C(=O)N[C@@H](CCCNC(=N)N)C(=O)NCC(=O)N[C@@H](CCCNC(=N)N)C(=O)NCC(=O)O)C(C)C)[C@@H](C)CC)C(=O)O [liraglutide]
hypophagia (energy consumption) [1]: no hypophagia effect

semaglutide: commercially available GLP-1 receptor agonist
decrease of plasma CRP relative to AMLN-fed vehicle group ([2]; high-dose semaglutide 10 nmol/kg/day SC (FIG. 18)): 43% | effect on plasma ALT ([2]; low dose semaglutide 0.3 nmol/kg/day SC (FIG. 17)): inefficient | effect on plasma CRP ([2]; low-dose semaglutide 0.3 nmol/kg/day SC (FIG. 18)): inefficient | hepatic gene signature (gene ontology: inflammatory response, cytokine production, immune cell activation and migration) ([3]; high-dose semaglutide 10 nmol/kg/day (FIG. 19)): reverted the pathological signature | hepatic gene signature (gene ontology: inflammatory pathways) ([3]; low-dose SEMA 0.3 nmol/kg/day (FIG. 19)): inefficient | maximal effect, TNFα inhibition [4]: 29% | glycemia [5]: no beneficial effect | mice showing NAS reduction beyond 1 stage [6]: None of the mice | insulinemia [7]: significant beneficial effect | liver fat / hepatic triglyceride content [8]: significant beneficial effect
